Experiment: Study HDP-CDV-201: safety and tolerability (adverse events, laboratory abnormalities, discontinuations)
Assay type: in vivo, human (adult allogeneic HSCT recipients)
Description: Clinical Studies of HDP-CDV were performed and described in detail in the following Examples. For example, HDP-CDV-201 is a placebo-controlled, dose-escalating trial in HSCT CMV (R+) recipients, evaluating the ability of HDP-CDV to prevent or control CMV infection was carried out. Five cohorts were established in which participants or subjects received either placebo or the HDP-CDV orally, in doses ranging from 40 mg weekly (QW) to 200 mg twice weekly (BIW). Subjects who were post-HSCT were enrolled at the time of engraftment and randomized to HDP-CDV or placebo (3 to 1 ratio) and received blinded therapy until approximately 100 day post-transplantation. HDP-CDV doses were 40 mg QW, 100 mg QW, 200 mg QW, 200 mg BIW and 100 mg BIW. Escalation to the next dose was decided by the data monitoring committee after review of the safety data from the previous Cohort. Subjects who developed CMV disease or CMV infection requiring pre-emptive therapy with local standard of care were discontinued from blinded therapy and followed for 4 weeks. Subjects who completed treatment with blinded therapy were followed for 8 weeks post-therapy.
Data from Study HDP-CDV-201 also provided characterization of the safety and tolerability profile of HDP-CDV when administered for the prevention or control of CMV infection in high risk (R^+) post-HSCT adult subjects.
The Safety population (SAFETY) included all randomized subjects who took at least one dose of study treatment. This population was used to summarize safety outcomes based on the treatment actually received, in cases where a subject was treated contrary to the randomization schedule.
The safety and tolerability profile of HDP-CDV, including subject demographics and Baseline characteristics; the AE profile; and laboratory abnormalities of interest were analyzed in the cohorts followed in this investigation.
Subjects completing the treatment period received a full course of study medication; those completing the entire study attended visits through 8 weeks of follow up. Subjects who discontinued treatment may have done so for protocol specified reasons (e.g. development of clinically significant CMV infection requiring preemptive treatment with excluded anti-CMV medications) or for other reasons (e.g., withdrawal, adverse events, loss to follow-up). The disposition of subjects in Study HDP-CDV-201 during the double-blind, placebo-controlled treatment period (through Week 11) is listed by dosing Cohort in TABLE 23.
Adverse events were examined by severity to ensure that all safety signals were identified in this study population. Because of the frequency of events in HSCT recipients, particular attention was given to evaluation of Grade 3 […], 4 (severe), and 5 (fatal) adverse events.
Only those preferred terms for which at least one Grade 3 or higher event was experienced in any treatment group are listed. Cytomegalovirus-related AEs are excluded from this analysis.
HDP-CDV is a lipid conjugate of CDV. Because CDV is known to have adverse effects on renal function and bone marrow, decreased GFR and persistent neutropenia were identified as AEs of special interest. Key renal and hematological (TABLE 30) laboratory parameters were measured and listed below by Study HDP-CDV-201 treatment groups. TABLE 30 includes abnormal levels of serum creatinine, neutrophils, platelets, WBCs, and hemoglobin and includes data at Screening and during the treatment period.
A common metric for unit based dosing of medications is by weight (mg/kg). When the distribution of weights was examined for all subjects participating in the study, the median was 78 kg and the lower 25th percentile weight was approximately 65 kg, which translates to a cut-off of ˜3 mg/kg for a 200 mg total weekly dose. Based upon this approach, a cut-off of 3 mg/kg was used to assess the frequency of diarrhea and associated GI AEs reported for the subjects in Cohorts 3 or 4a (TABLE 40).

CCCCCCCCCCCCCCCCOCCCOP(=O)(O)COC(CO)Cn1ccc(N)nc1=O (stereo not drawn) [HDP-CDV]
TEAE Pneumonia, Grade 4 (40 mg QW): 1 (4.0%) | TEAE Pneumonia, Grade 5 (40 mg QW): 0 | TEAE Pyrexia, Frequency (40 mg QW): 1 (4.0%) | TEAE Pyrexia, Grade 2 (40 mg QW): 1 (4.0%) | TEAE Pyrexia, Grade 3 (40 mg QW): 0 | TEAE Pyrexia, Grade 4 (40 mg QW): 0 | TEAE Pyrexia, Grade 5 (40 mg QW): 0 | TEAE Renal Failure, Frequency (40 mg QW): 1 (4.0%) | TEAE Renal Failure, Grade 2 (40 mg QW): 0 | TEAE Renal Failure, Grade 3 (40 mg QW): 1 (4.0%) | TEAE Renal Failure, Grade 4 (40 mg QW): 0 | TEAE Renal Failure, Grade 5 (40 mg QW): 0 | TEAE Staphylococcal Bacteremia, Frequency (40 mg QW): 0 | TEAE Staphylococcal Bacteremia, Grade 2 (40 mg QW): 0 | TEAE Staphylococcal Bacteremia, Grade 3 (40 mg QW): 0 | TEAE Staphylococcal Bacteremia, Grade 4 (40 mg QW): 0 | TEAE Staphylococcal Bacteremia, Grade 5 (40 mg QW): 0 | TEAE Thrombocytopenia, Frequency (40 mg QW): 3 (12.0%) | TEAE Thrombocytopenia, Grade 2 (40 mg QW): 1 (4.0%) | TEAE Thrombocytopenia, Grade 3 (40 mg QW): 1 (4.0%) | TEAE Thrombocytopenia, Grade 4 (40 mg QW): 1 (4.0%) | TEAE Thrombocytopenia, Grade 5 (40 mg QW): 0 | TEAE Vomiting, Frequency (40 mg QW): 2 (8.0%) | TEAE Vomiting, Grade 2 (40 mg QW): 1 (4.0%) | TEAE Vomiting, Grade 3 (40 mg QW): 0 | TEAE Vomiting, Grade 4 (40 mg QW): 0 | TEAE Vomiting, Grade 5 (40 mg QW): 0 | subjects discontinued due to acute renal failure (40 mg QW): one | Subjects Reporting Diarrhea as an AE (40 mg QW, n = 25): 3 (12.0%) | Discontinuation: Death (40 mg QW, active treatment period): 1 (4.0%) Subject n (%) | Discontinuation: Adverse event (40 mg QW, active treatment period through Week 11): 3 (12.0%) Subject n (%) | TEAE ALT increased, Frequency (100 mg BIW): 9 (18.0%) | TEAE ALT increased, Grade 2 (100 mg BIW): 1 (2.0%) | TEAE ALT increased, Grade 3 (100 mg BIW): 4 (8.0%) | TEAE ALT increased, Grade 4 (100 mg BIW): 0 | TEAE ALT increased, Grade 5 (100 mg BIW): 0 | TEAE AML, Recurrent, Frequency (100 mg BIW): 3 (6.0%) | TEAE AML, Recurrent, Grade 2 (100 mg BIW): 1 (2.0%) | TEAE AML, Recurrent, Grade 3 (100 mg BIW): 0 | TEAE AML, Recurrent, Grade 4 (100 mg BIW): 1 (2.0%) | TEAE AML, Recurrent, Grade 5 (100 mg BIW): 1 (2.0%) | TEAE AST increased, Frequency (100 mg BIW): 5 (10.0%) | TEAE AST increased, Grade 2 (100 mg BIW): 1 (2.0%) | TEAE AST increased, Grade 3 (100 mg BIW): 3 (6.0%) | TEAE AST increased, Grade 4 (100 mg BIW): 0 | TEAE AST increased, Grade 5 (100 mg BIW): 0 | TEAE Abdominal pain, Frequency (100 mg BIW): 13 (26.0%) | TEAE Abdominal pain, Grade 2 (100 mg BIW): 1 (2.0%) | TEAE Abdominal pain, Grade 3 (100 mg BIW): 1 (2.0%) | TEAE Abdominal pain, Grade 4 (100 mg BIW): 0 | TEAE Abdominal pain, Grade 5 (100 mg BIW): 0 | TEAE Acute GVHD, Frequency (100 mg BIW): 32 (64.0%) | TEAE Acute GVHD, Grade 2 (100 mg BIW): 11 (22.0%) | TEAE Acute GVHD, Grade 3 (100 mg BIW): 12 (24.0%) | TEAE Acute GVHD, Grade 4 (100 mg BIW): 5 (10.0%) | TEAE Arthralgias, Frequency (100 mg BIW): 3 (6.0%) | TEAE Arthralgias, Grade 2 (100 mg BIW): 1 (2.0%) | TEAE Arthralgias, Grade 3 (100 mg BIW): 1 (2.0%) | TEAE Arthralgias, Grade 4 (100 mg BIW): 0 | TEAE Arthralgias, Grade 5 (100 mg BIW): 0 | TEAE Back Pain, Frequency (100 mg BIW): 4 (8.0%) | TEAE Back Pain, Grade 2 (100 mg BIW): 3 (6.0%) | TEAE Back Pain, Grade 3 (100 mg BIW): 0 | TEAE Back Pain, Grade 4 (100 mg BIW): 0 | TEAE Back Pain, Grade 5 (100 mg BIW): 0 | TEAE Decreased appetite, Frequency (100 mg BIW): 9 (18.0%) | TEAE Decreased appetite, Grade 3 (100 mg BIW): 3 (6.0%) | TEAE Decreased appetite, Grade 4 (100 mg BIW): 0 | TEAE Decreased appetite, Grade 5 (100 mg BIW): 0 | TEAE Diarrhea, Frequency (100 mg BIW): 26 (52.0%) | TEAE Diarrhea, Grade 2 (100 mg BIW): 6 (12.0%) | TEAE Diarrhea, Grade 3 (100 mg BIW): 9 (18.0%) | TEAE Diarrhea, Grade 4 (100 mg BIW): 0 | TEAE Diarrhea, Grade 5 (100 mg BIW): 0 | TEAE Fatigue, Frequency (100 mg BIW): 9 (18.0%) | TEAE Fatigue, Grade 2 (100 mg BIW): 2 (4.0%) | TEAE Fatigue, Grade 3 (100 mg BIW): 0 | TEAE Fatigue, Grade 4 (100 mg BIW): 0 | TEAE Fatigue, Grade 5 (100 mg BIW): 0 | TEAE GGT Increased, Frequency (100 mg BIW): 4 (8.0%) | TEAE GGT Increased, Grade 2 (100 mg BIW): 1 (2.0%) | TEAE GGT Increased, Grade 3 (100 mg BIW): 3 (6.0%) | TEAE GGT Increased, Grade 4 (100 mg BIW): 0 | TEAE GGT Increased, Grade 5 (100 mg BIW): 0 | TEAE Generalized oedema, Frequency (100 mg BIW): 1 (2.0%) | TEAE Generalized oedema, Grade 2 (100 mg BIW): 1 (2.0%) | TEAE Generalized oedema, Grade 3 (100 mg BIW): 0 | TEAE Generalized oedema, Grade 4 (100 mg BIW): 0 | TEAE Generalized oedema, Grade 5 (100 mg BIW): 0 | TEAE Hyperbilirubinaemia, Frequency (100 mg BIW): 3 (6.0%) | TEAE Hyperbilirubinaemia, Grade 2 (100 mg BIW): 1 (2.0%) | TEAE Hyperbilirubinaemia, Grade 3 (100 mg BIW): 0 | TEAE Hyperbilirubinaemia, Grade 4 (100 mg BIW): 0 | TEAE Hyperbilirubinaemia, Grade 5 (100 mg BIW): 0 | TEAE Hyperglycaemia, Frequency (100 mg BIW): 9 (18.0%) | TEAE Hyperglycaemia, Grade 2 (100 mg BIW): 4 (8.0%) | TEAE Hyperglycaemia, Grade 3 (100 mg BIW): 2 (4.0%) | TEAE Hyperglycaemia, Grade 4 (100 mg BIW): 1 (2.0%) | TEAE Hyperglycaemia, Grade 5 (100 mg BIW): 0 | TEAE Hyperkalemia, Frequency (100 mg BIW): 3 (6.0%) | TEAE Hyperkalemia, Grade 2 (100 mg BIW): 2 (4.0%) | TEAE Hyperkalemia, Grade 3 (100 mg BIW): 0 | TEAE Hyperkalemia, Grade 4 (100 mg BIW): 0 | TEAE Hyperkalemia, Grade 5 (100 mg BIW): 0 | TEAE Hypocalcaemia, Frequency (100 mg BIW): 2 (4.0%) | TEAE Hypocalcaemia, Grade 2 (100 mg BIW): 1 (2.0%) | TEAE Hypocalcaemia, Grade 3 (100 mg BIW): 1 (2.0%) | TEAE Hypocalcaemia, Grade 4 (100 mg BIW): 0 | TEAE Hypocalcaemia, Grade 5 (100 mg BIW): 0 | TEAE Hypokalaemia, Frequency (100 mg BIW): 8 (16.0%) | TEAE Hypokalaemia, Grade 2 (100 mg BIW): 2 (4.0%)
